Reference: a melting point compilation (Tetko et al.; mined from patent text by program, amines drawn as free bases though some values may be those of a salt)

SMILES	melting point [°C]
Fc1cccc(Cl)c1COc1cc(Cl)cnc1NC(=S)Nc1ccc(Cl)cc1	158 to 160
CC(C)C1Cc2cc(OCC(=O)O)c(Cl)c(Cl)c2C1=O (stereo not given)	161 to 164
c1ccc2nc(COc3cccc4[nH]ccc34)ccc2c1	143 to 144
CC(O)c1cc(N)ccc1N (stereo not given)	124
O=C(O)c1cn(C2CC2)c2c(F)c(N3CCCC(n4cncn4)C3)c(F)cc2c1=O (stereo not given)	217
CC(=O)N(C)C1=C(C#N)CC(N)(C(=O)CCCl)C=C1 (stereo not given)	174 to 175
N#Cc1nn(-c2c(Cl)cc(C(F)(F)F)cc2Cl)c(-n2cccc2)c1S(=O)C(F)(F)F (stereo not given)	165 to 167
O=c1c2cnc3ccccc3c2on1-c1ccccc1	163
O=C1NCCc2c(NCc3ccccc3)cccc21	142 to 144
Nc1c(S(=O)(=O)C(F)(F)F)c(-c2ncon2)nn1-c1c(Cl)cc(C(F)(F)F)cc1Cl	205 to 208
O=C(CC1CCCCC1)Nc1c(Cl)ccc2nc(N3CC[C@@H](O)C3)ccc12	219 to 221
COc1ccc(COCC(O)CO)cc1 (stereo not given)	51 to 53
COc1ccc(Oc2nccc(-c3c(-c4ccc(F)cc4)ncn3C3CCNCC3)n2)cc1	190 to 191
NS(=O)(=O)c1ccc(-n2nc(C(F)(F)F)cc2-c2ccc(Cl)cc2)cc1	126 to 128
Cc1cc(NC(C)(C)C)nc(NC(C)(C)C)c1C#N	134 to 138
CCOC(=O)C(=CNNc1c(Cl)cc(C(F)(F)F)cc1Cl)C(C)=O	75 to 76
CSCCc1nc(N2CCc3ccccc3CC2)c(C#N)c(=O)n1CCO	93 to 99
Cc1nn(-c2ccccn2)c2nc3ccccc3c(Cl)c12	157 to 159
CC(C)[C@H](NC(=O)N(C)Cc1csc(NC(=O)OC(C)(C)C)n1)C(=O)N[C@@H](Cc1ccccc1)[C@@H](O)C[C@H](Cc1ccccc1)NC(=O)OCc1cccnc1	95 to 98
COc1cc2c(c3c1OC(C)(C)C3)C(c1cccc(NC(=O)c3cccnc3)c1)=NC(C)(C)C2	213 to 219
CCN(CC)CCNC(=O)c1cc(Cl)c(N)cc1OCCCN1C(=O)c2ccccc2C1=O	141 to 143
CC(C)(C)OC(=O)Nc1cc(-c2nnc(CCc3cccc(C(F)(F)F)c3)o2)ccn1	256 to 257
CCOC(=O)C1=C(C)Nc2nnnn2C1c1cccc([N+](=O)[O-])c1 (stereo not given)	210 to 212
CC(C)C[C@H](NC(=O)[C@H](Cc1ccccc1)NC(=O)OCc1ccccc1)C(=O)N[C@@H](C(C)C)[C@@H](O)c1c(-c2ccccc2)c1=O	128 to 130
COc1cc(Nc2c(C#N)cnc3cc(-c4ccsc4CN4CCOCC4)ccc23)c(Cl)cc1Cl	98 to 100

SMILES	melting point [°C]
CC1=C(O)C(=O)C(C)(CC2(O)C=CC=CC2)O1 (stereo not given)	122 to 124
CC[C@H](C)C(OCc1ccccc1F)[C@H]1[C@H]([N+](=O)[O-])[C@H](c2ccsc2)N[C@@H]1C(=O)NCCC(=O)O (stereo not given in full)	113 to 114
c1cc(-n2cccn2)cc(-n2cnc3cc(-c4ccoc4)ccc32)c1	170 to 173
Cc1cc(-n2nc(C#N)cc2-c2ccc(S(C)(=O)=O)cc2)ccc1Cl	163 to 164
CN(c1nc2cc(NC(=O)OC(C)(C)C)ccn2n1)C1CC1	323
CN(C)C(=N[N+](=O)[O-])N(Cc1cnc(Cl)s1)C(=S)Oc1ccccc1	161 to 162
COc1ccc(CCCc2c[nH]c(C(=O)N3CCC[C@@H]3C(=O)N[C@H]3CC(=O)O[C@@H]3OCc3ccccc3)n2)cc1	62 to 65
Cc1ccc2nc(-c3ccccc3F)cc(OCc3ccccc3)c2c1	91.5 to 92.8
CC(C)(C)OC(=O)N1CCC(ON=C(c2ccccc2)c2cc3ccncc3[nH]2)C1 (stereo not given)	80 to 82
O=S1NC(Cc2cc3ccccc3s2)=NO1 (stereo not given)	127 to 129
CCOC(=O)C(=O)Nc1sc(C(=O)OCC)c(C)c1[N+](=O)[O-]	118 to 120
CCn1c(N)nc(N2CCc3ccccc3CC2)c(C#N)c1=O	195 to 203
BrCc1noc2c1ccc1ccccc12	100 to 103
CC1CCCC(C)N1S(=O)(=O)N[C@@H](Cc1ccc(Oc2nccc3cnccc23)cc1)C(=O)O (stereo not given in full)	151
O=C(Cc1ccc(CN2CCC(=O)C(C(c3ccccc3)c3ccccc3)C2)cc1)OCC(=O)c1ccccc1 (stereo not given)	99 to 110
O=C1Nc2cc(C(F)(F)F)cc(C(F)(F)F)c2C1=O	200 to 203
COC(=O)C1=C(C)NC(C)=C(C(=O)OCCOc2cccc(CCNCC(O)COc3ccc(COCCOC(C)C)cc3)c2)C1c1cccc([N+](=O)[O-])c1 (stereo not given)	65 to 67
COCCOC(=O)c1c(F)cccc1S(=O)(=O)NC(=O)Nc1nc(OC)nc(OC)n1	179 to 182
CCOC(=NC(=O)c1ccco1)N1Cc2ccccc2-c2ccccc2C1	87 to 92
COc1cc(C(N)=S)c2c(c1OC)C(=O)CC2	196 to 199
CCOC(=O)C(C)=NNc1ccc(F)cc1F	153 to 156
CCOC(=O)c1cnc2c(N=C3C(=O)OC(C)(C)OC3=O)cccc2c1	228 to 231
O=C(O)C1Cc2ccc(OCc3ccccc3)cc2O1 (stereo not given)	118 to 119
CCN1C[C@@H](C(=O)OC(C)(C)C)N(C(=O)[C@H](C)CSC(=O)c2ccccc2)C1=O	92 to 93
O=C(c1nc2ccc(O)cc2[nH]1)N1CCC(=Cc2ccc(F)cc2)CC1	105 to 106

SMILES	melting point [°C]
CCCCOC(=O)c1ccc(C#N)cc1	54 to 55
COc1cc(COc2nn(Cc3ccc(Oc4ccccc4)cc3)cc2C(=O)O)ccc1OCc1nc(-c2ccco2)oc1C	153 to 154
CCCCCCCCCCCC(=O)NNC(=O)c1ccccc1O	158
CCC(=O)N1CCN(C(=O)Cl)CC1	45
C=C(C)C(=O)c1cn2c(C)c(CC)c(SC)nc2n1	136 to 137
CC(=O)OCCOc1ccc2oc3cc(C#N)ccc3c(=O)c2c1	194 to 196
CC(C)=CCC/C(C)=C/COc1c(I)c(C)c(I)c(C)c1I	65 to 66
Cc1cc(NS(=O)(=O)c2ccccc2F)cc(C)c1S(=O)(=O)C[N+](=O)[O-]	175 to 177
CS(=O)c1nccc(N)n1 (stereo not given)	158 to 159
CC(C)(CCc1ccc(NC=NO)cc1)CN1CCCC1	120 to 122
CCOC(=O)c1sc(SC)c2c1CCc1nc(C)oc1-2	131 to 132
CCN(CC)CCCNc1ccc(-c2ccnc(Nc3cc(OC)c(OC)c(OC)c3)n2)cn1	67
O=C(O)Cc1c(C(=O)c2cc(C(=O)O)no2)[nH]c2ccc(Cl)cc12	200 to 205
COc1cc(C)cc(-c2n[nH]cc2-c2ccnc(SC)n2)c1	143
O=C(Nc1ccc(Cl)cc1)Oc1ccc2c(c1)NCCC2	118
COc1ccc(C(C)(C)O)cc1CN[C@H]1CN2CC[C@H]1[C@H](C(=O)O)[C@@H]2C(c1ccccc1)c1ccccc1	150 to 153
OCCNCCOCCOCCNCCO	49 to 55
CCCc1nc2c(N)nc3ccccc3c2n1CCCC(=O)CC(C)C	136 to 138
Brc1cnc(Sc2ncccn2)nc1	178 to 180
CON1C(C)(C)CC(OCC2CO2)CC1(C)C (stereo not given)	47 to 49
CCOC(=O)c1cnc2nc3ccccc3n2c1O	309 to 310
O=Cc1cc(F)c(NC(=O)C(F)(F)F)c(F)c1	122 to 125
O=C(Cc1cccnn1)c1ccc(F)cc1F	116 to 118
OC1CCN(c2ccncc2)CC1	155 to 156
Cc1ccc(S(=O)(=O)NC2(c3ccccc3)C3=NCC(C)(C)CN3c3ccccc32)cc1 (stereo not given)	224 to 226

SMILES	melting point [°C]
O=C(c1ccc(OC2CCOCC2)cc1)c1ccc([N+](=O)[O-])cc1	105 to 106
CN(CCCN=C(NC#N)c1cc(C(C)(C)C)c(O)c(C(C)(C)C)c1)CCOc1ccc2c(c1)OCO2	129 to 130
Cc1cc(OCc2ccccc2)ccc1OCc1ccccc1	42 to 43
Cc1cccc(-c2nc(-c3cccc(C)c3)nc(-c3cccc(C)c3)n2)c1	151 to 152
CC(C)CCCC(C)C1CCC2C3=C(CCC21C)C1(C)CCC(O)C(C)(C)C1CC3 (stereo not given)	154 to 155
N#Cc1ccc(-c2cc3c(n2-c2ccc(O)c(C(=O)O)c2)CCCC3)cc1	242 to 244
CCOC(=O)c1cc(Cl)n2c(C)nnc2n1	108 to 110
CNC(=S)NCc1ccc(Br)nc1	117 to 118
CC(NC(=O)c1c(Cl)ccnc1Cl)c1ncc(C(F)(F)F)cc1Cl (single isomer, unassigned; (+))	110 to 111
COC(=O)CS(=O)C(C)c1ccc(-c2ccccc2)c(F)c1 (stereo not given)	161 to 163
COc1cc(C(C)=O)ccc1OCCN1CCN(c2nsc3ccccc23)CC1	98 to 100
COC(C)(OC)C(=O)CCCCCCOc1ccc(-c2ccccc2)cc1	48
CC(C)(C)NS(=O)(=O)c1cccc(-c2ccc3cnc(Nc4ccc(=O)[nH]c4)nn23)c1	270 to 271
COc1ccc(COC(=O)c2ccc3ccccc3c2O)cc1	92 to 93
Nc1c(OCc2ccccc2)cc(Br)cc1[N+](=O)[O-]	90
CCOC(=O)C1CCN(C(=O)/C=C/c2ccc(Sc3ccc4c(c3)OCCO4)c([N+](=O)[O-])c2)CC1	78 to 88
Cc1cc(-c2ccccc2)n2ncc(C(=O)c3ccccc3)c2n1	165 to 166
COc1cc(N2CCC(=O)CC2)ncn1	111 to 114
CC(C)(C)C(OC(=O)Nc1ccccc1)C(=CC1CCCCC1)n1cncn1 (stereo not given)	156
Cc1cc(=O)oc2c1c(C)nn2CCO	152 to 153
O=C1c2ccccc2C(=O)c2sc(-c3cc(Br)c(Br)o3)nc21	> 260
CC(CCCCCC(C)NC(=O)c1ccc(OC(F)(F)F)cc1)NC(=O)c1ccc(OC(F)(F)F)cc1 (stereo not given)	156 to 160
NC(=O)N(O)Cc1cscc1Br	134 to 136
CC1CC(=O)NN=C1c1ccc(N2CCNCC2)c(N)c1 (stereo not given)	244 to 245
O=C(Cn1ncc(-c2ccccc2)c1-c1ccccc1)NCCN1CCCCC1	95 to 97
